Data published in patent US20250206738A1, “WRN INHIBITORS” (Nimbus Wadjet, Inc., priority 2023, published 2025).

Legend:
[1] = test system: p21 induction in HCT 116 cells; experiment: p21 induction in cells (In-Cell Western, p21/GAPDH ratio); type: cell-based; settings: Homo sapiens, HCT-116, 24 h, 24 h compound incubation, read-out: P21_EC50
In short: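 p21 and GAPDH signals quantified by In-Cell Western after 24 h compound exposure of HCT 116 cells (11 concentrations, 2-fold steps, usual top 10 μM). Percent activation from p21/GAPDH ratio relative to DMSO (low) and internal WRN inhibitor (high) controls; curve fit gave EC50.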

[2] = target: T1, human Werner helicase (WRN, Uniprot Q14191, amino acids 517-1235 with L1074F point mutation; WRN-BV08) (Homo sapiens, UniProt Q14191, L1074F); experiment: WRN (BV08) ADP-Glo assay; type: biochemical; settings: WRN-BV08 (aa 517-1235, L1074F); read-out: ADP-Glo_hWRN_IC50
T1 construct: Uniprot Q14191, amino acids 517-1235 with L1074F point mutation; 8xHis (C, cleaved yes); TEV cleavage site (ENLYFQG) (C, cleaved yes); made in house; host or cells: Sf9 insect cells (baculovirus, pFastBac)
In short: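 ADP formed by untagged WRN helicase fragment (aa 517-1235, L1074F; 0.15 nM final) on 0.1 nM DNA duplex with […], 60 min at 25 °C after 15 min compound preincubation, pH 7.5 Bicine buffer. Luminescent ADP-Glo readout; IC50 from 4-parameter fit of % inhibition.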

T1 sequence (Q14191 with tags, fused parts or gaps L1074F): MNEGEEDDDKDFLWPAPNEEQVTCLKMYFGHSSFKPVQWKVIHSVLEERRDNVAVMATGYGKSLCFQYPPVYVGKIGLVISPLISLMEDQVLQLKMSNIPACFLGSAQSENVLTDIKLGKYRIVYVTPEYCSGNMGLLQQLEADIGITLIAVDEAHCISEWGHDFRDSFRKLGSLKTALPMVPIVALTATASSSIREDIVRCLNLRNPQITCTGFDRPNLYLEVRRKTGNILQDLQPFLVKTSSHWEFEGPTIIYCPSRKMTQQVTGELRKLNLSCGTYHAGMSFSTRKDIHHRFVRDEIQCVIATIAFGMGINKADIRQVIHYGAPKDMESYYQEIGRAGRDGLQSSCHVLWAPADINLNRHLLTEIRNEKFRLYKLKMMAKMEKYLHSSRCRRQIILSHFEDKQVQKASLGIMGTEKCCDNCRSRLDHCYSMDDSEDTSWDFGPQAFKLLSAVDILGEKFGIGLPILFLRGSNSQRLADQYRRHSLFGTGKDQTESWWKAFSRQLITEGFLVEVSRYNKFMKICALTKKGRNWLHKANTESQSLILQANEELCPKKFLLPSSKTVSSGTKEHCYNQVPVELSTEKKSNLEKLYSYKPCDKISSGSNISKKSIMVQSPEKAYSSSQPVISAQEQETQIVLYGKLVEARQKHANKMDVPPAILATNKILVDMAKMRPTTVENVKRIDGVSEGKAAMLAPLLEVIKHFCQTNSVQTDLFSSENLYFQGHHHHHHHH

SMILES | EC50 [1] [nM] | IC50 [2] [nM]
CCc1c(N2CCN(C(=O)c3c(O)cc(OC)cc3OC)CC2)c(=O)c2nn(-c3ccnc(OC)c3)nc2n1CC(=O)NC12CC(C3CC3)(C1)C2 [I-132, N-{3-cyclopropylbicyclo[1.1.1]pentan-1-yl}-2-{5-ethyl-6-[4-(2-hydroxy-4,6-dimethoxybenzoyl)piperazin-1-yl]-2-(2-methoxypyridin-4-yl)-7-oxo-2H,4H,7H-[1,2,3]triazolo[4,5-b]pyridin-4-yl}acetamide] | 2000 to 5000 | 5 to 50
CCc1c(N2CCN(C(=O)c3ncnc(C)c3O)[C@H]3CC[C@@H]32)c(=O)n2nc(-c3ccnc(OC)c3)nc2n1CC(=O)NC12CC(C(F)(F)F)(C1)C2 [I-48, 2-(5-ethyl-6-((1S,6S)-5-(5-hydroxy-6-methylpyrimidine-4-carbonyl)-2,5-diazabicyclo[4.2.0]octan-2-yl)-2-(2-methoxypyridin-4-yl)-7-oxo-[1,2,4]triazolo[1,5-a]pyrimidin-4(7H)-yl)-N-(3-(trifluoromethyl)bicyclo[1.1.1]pentan-1-yl)acetamide] | ≤ 500 | 5 to 50
CCc1c(N2CCN(C(=O)c3ncccc3C(=O)O)[C@H]3CC[C@@H]32)c(=O)c2nn(-c3ccnc(OC)c3)nc2n1CC(=O)NC12CC(C(C)C)(C1)C2 [I-202, 2-((1S,6S)-5-(5-ethyl-4-(2-((3-isopropylbicyclo[1.1.1]pentan-1-yl)amino)-2-oxoethyl)-2-(2-methoxypyridin-4-yl)-7-oxo-4,7-dihydro-2H-[1,2,3]triazolo[4,5-b]pyridin-6-yl)-2,5-diazabicyclo[4.2.0]octane-2-carbonyl)nicotinic acid] | > 5000 | 5 to 50
CCc1c(N2CCN(C(=O)c3ncnc(C)c3O)CC2)c(=O)c2nc3cc(C)sc3nc2n1CC(=O)NC12CC(C(F)(F)F)(C1)C2 [I-3, 2-(7-ethyl-6-(4-(5-hydroxy-6-methylpyrimidine-4-carbonyl)piperazin-1-yl)-2-methyl-5-oxopyrido[2,3-b]thieno[3,2-e]pyrazin-8(5H)-yl)-N-(3-(trifluoromethyl)bicyclo[1.1.1]pentan-1-yl)acetamide] | > 5000 | 5 to 50
CCc1c(N2CCN(C(=O)c3cnn(C)c3)CC2)c(=O)n2nc(C3=CCOCC3)nc2n1CC(=O)NC1Cc2ccc(F)cc2C1 (stereo not drawn) [I-248, 2-(2-(3,6-dihydro-2H-pyran-4-yl)-5-ethyl-6-(4-(1-methyl-1H-pyrazole-4-carbonyl)piperazin-1-yl)-7-oxo-[1,2,4]triazolo[1,5-a]pyrimidin-4(7H)-yl)-N-(5-fluoro-2,3-dihydro-1H-inden-2-yl)acetamide] | > 5000 | 100 to 500
CCc1c(N2CCN(C(=O)c3c(O)ccc4ncoc34)CC2)c(=O)n2nc(-c3ccnc(OC)c3)nc2n1CC(=O)NC12COC(C(F)(F)F)(C1)C2 [I-44, 2-(5-ethyl-6-(4-(6-hydroxybenzo[d]oxazole-7-carbonyl)piperazin-1-yl)-2-(2-methoxypyridin-4-yl)-7-oxo-[1,2,4]triazolo[1,5-a]pyrimidin-4(7H)-yl)-N-(1-(trifluoromethyl)-2-oxabicyclo[2.1.1]hexan-4-yl)acetamide] | 2000 to 5000 | 5 to 50
CCc1c(N2CCN(C(=O)c3c(O)ccc4ncoc34)CC2)c(=O)n2nc(N(C)C)nc2n1CC(=O)NC12CC(C(F)(F)F)(C1)C2 [I-22, 2-(2-(dimethylamino)-5-ethyl-6-(4-(6-hydroxybenzo[d]oxazole-7-carbonyl)piperazin-1-yl)-7-oxo-[1,2,4]triazolo[1,5-a]pyrimidin-4(7H)-yl)-N-(3-(trifluoromethyl)bicyclo[1.1.1]pentan-1-yl)acetamide] | 2000 to 5000 | 5 to 50
CCc1c(N2CCN(C(=O)c3ncnc(C)c3O)CC2)c(=O)c2oc(-c3ccnc(OC)c3)nc2n1CC(=O)NC12CC(C(F)(F)F)(C1)C2 [I-17, 2-(5-ethyl-6-(4-(5-hydroxy-6-methylpyrimidine-4-carbonyl)piperazin-1-yl)-2-(2-methoxypyridin-4-yl)-7-oxooxazolo[4,5-b]pyridin-4(7H)-yl)-N-(3-(trifluoromethyl)bicyclo[1.1.1]pentan-1-yl)acetamide] | 2000 to 5000 | 5 to 50
CCc1c(N2CCN(C(=O)c3ncnc(C)c3O)[C@H]3CC[C@@H]32)c(=O)c2nc(C)c(C)nc2n1CC(=O)NC12CC(C3CC3)(C1)C2 [I-227, N-(3-cyclopropylbicyclo[1.1.1]pentan-1-yl)-2-(6-ethyl-7-((1S,6S)-5-(5-hydroxy-6-methylpyrimidine-4-carbonyl)-2,5-diazabicyclo[4.2.0]octan-2-yl)-2,3-dimethyl-8-oxopyrido[2,3-b]pyrazin-5(8H)-yl)acetamide] | 500 to 2000 | 5 to 50

The next lines start with the values.

EC50 [1] [nM] | IC50 [2] [nM] | SMILES
2000 to 5000 | 5 to 50 | CCc1c(N2CCN(C(=O)c3ncnc(C)c3O)[C@H]3CC[C@@H]32)c(=O)c2nc(N(C)C)cnc2n1CC(=O)NC12CC(OC(F)(F)F)(C1)C2 [I-237, 2-(2-(dimethylamino)-6-ethyl-7-((1S,6S)-5-(5-hydroxy-6-methylpyrimidine-4-carbonyl)-2,5-diazabicyclo[4.2.0]octan-2-yl)-8-oxopyrido[2,3-b]pyrazin-5(8H)-yl)-N-(3-(trifluoromethoxy)bicyclo[1.1.1]pentan-1-yl)acetamide]
> 5000 | 100 to 500 | CCc1c(N2CCN(C(=O)c3cnn(C)c3)CC2)c(=O)n2nc(C3=CCOCC3)nc2n1CC(=O)NC1CC2(C1)CC2F (stereo not drawn) [I-249, 2-(2-(3,6-dihydro-2H-pyran-4-yl)-5-ethyl-6-(4-(1-methyl-1H-pyrazole-4-carbonyl)piperazin-1-yl)-7-oxo-[1,2,4]triazolo[1,5-a]pyrimidin-4(7H)-yl)-N-(1-fluorospiro[2.3]hexan-5-yl)acetamide]
≤ 500 | 5 to 50 | CCc1c(C2=CCN(C(=O)c3ncnc(C)c3O)CC2C)c(=O)c2nn(-c3ccnc(OC)c3)nc2n1CC(=O)NC12CC(C(C)C)(C1)C2 (single isomer, unassigned) [I-97]
> 5000 | 100 to 500 | CCc1c(N2CCN(C(=O)c3cnn(C)c3)CC2)c(=O)n2nc(-c3ccnc(OC)c3)nc2n1CC(=O)N[C@@H]1C[C@H]1c1c(F)cccc1F (racemic) [I-244, rac-N-((1R,2S)-2-(2,6-difluorophenyl)cyclopropyl)-2-(5-ethyl-2-(2-methoxypyridin-4-yl)-6-(4-(1-methyl-1H-pyrazole-4-carbonyl)piperazin-1-yl)-7-oxo-[1,2,4]triazolo[1,5-a]pyrimidin-4(7H)-yl)acetamide]
500 to 2000 | 5 to 50 | CCc1c(N2CCN(C(=O)c3ncnc(C)c3O)CC2)c(=O)n2nc(-c3ccncc3)nc2n1CC(=O)NC12CC(C3CCC3)(C1)C2 [I-219, N-(3-cyclobutylbicyclo[1.1.1]pentan-1-yl)-2-(5-ethyl-6-(4-(5-hydroxy-6-methylpyrimidine-4-carbonyl)piperazin-1-yl)-7-oxo-2-(pyridin-4-yl)-[1,2,4]triazolo[1,5-a]pyrimidin-4(7H)-yl)acetamide]
≤ 500 | 5 to 50 | CCc1c(N2CCN(C(=O)c3c(O)ccc4ncoc34)CC2)c(=O)n2nc(-c3ccnc(OC)c3)nc2n1CC(=O)NC12CC(C(F)(F)C(F)(F)F)(C1)C2 [I-38, 2-(5-ethyl-6-(4-(6-hydroxybenzo[d]oxazole-7-carbonyl)piperazin-1-yl)-2-(2-methoxypyridin-4-yl)-7-oxo-[1,2,4]triazolo[1,5-a]pyrimidin-4(7H)-yl)-N-(3-(perfluoroethyl)bicyclo[1.1.1]pentan-1-yl)acetamide]
